Test results as given in BindingDB's records for doi:10.1016/0014-2999(96)00428-1 (Glaxo Research & Development, 1996).
Values joined by “and” are separate entries in the source; they are usually repeats but may differ in a detail not shown here. Equal entries are not always repeated.

Each compound was assayed against Hrh3 protein (Rattus norvegicus, UniProt Q5PPG3).
Chain of Hrh3 protein (Q5PPG3 whole entry): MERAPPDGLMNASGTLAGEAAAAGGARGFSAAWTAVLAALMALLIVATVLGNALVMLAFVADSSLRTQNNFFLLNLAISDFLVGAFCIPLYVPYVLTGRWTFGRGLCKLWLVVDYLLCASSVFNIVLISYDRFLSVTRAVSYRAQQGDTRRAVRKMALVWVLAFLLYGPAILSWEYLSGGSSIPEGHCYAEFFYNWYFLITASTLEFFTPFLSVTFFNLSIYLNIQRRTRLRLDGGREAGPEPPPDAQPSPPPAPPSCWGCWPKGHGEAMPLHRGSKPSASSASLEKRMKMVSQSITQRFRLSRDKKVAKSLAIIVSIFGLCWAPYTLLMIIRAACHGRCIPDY

| Compound | Ki |
| --- | --- |
| CN/C([CH-][N+](=O)[O-])=[NH+]\CCSCc1ccc(CN(C)C)o1 | 5010 nM and > 10000 nM |
| NC(=NC1CCCCC1)N1CCC(c2cnc[nH]2)CC1 [GR-168320] | 0.15 nM and 0.19 nM |

Further lines, results first:

| Ki | Compound |
| --- | --- |
| 7940 nM and > 10000 nM | COc1ccc(CN(CCN(C)C)c2ccccn2)cc1 |
| 63.1 nM | CNC(=S)NCCCCc1cnc[nH]1 [1-[4-(1H-imidazol-5-yl)butyl]-3-methylthiourea] |
| 19.9 nM and 12.6 nM | Cc1[nH]cnc1CSCCNC(=N)NCCCc1c[nH]cn1 [2-[3-(1H-imidazol-5-yl)propyl]-1-(2-{[(5-methyl-1H-imidazol-4-yl)methyl]sulfanyl}ethyl)guanidine] |
